Assay results as given in paper PMC9061857, “A fluorogenic probe for granzyme B enables in-biopsy evaluation and screening of response to anticancer immunotherapies” (Nature Communications, 2022).
Where no end group is shown, it is not given here.

Tested on: OVA-EL4 cancer cells
Assay: Time-course flow cytometry of OVA-EL4 cancer cells with OT-I CD8+ T cells
Type: cell-based
Set-up: unit not given here
Conditions: H5 10 μM, Sytox Blue 1 μM
From the text: Legends: viable (gray), H5-stained (green), apoptotic (red). […] Black arrows highlight T cells, yellow arrows highlight H5-stained intracellular GzmB puncta. […] Scale bar: 10 μm. f Flow cytometric analysis of OVA-EL4 cancer cells from experiments in e. Data as means ± SEM (n = 3). P-values from two-tailed t-tests. Source data (c, f) provided as a Source Data file.
We utilized CD8+ T cells expressing the OT-I transgenic receptor, which specifically targets cells presenting the OVA-derived […] antigen in the context of H-2kb and co-cultured them with […]-pulsed EL4 cancer cells (Fig. S11). T cells were counterstained with Cell Tracker Orange for ease of identification and incubated with probe H5 and the cell death marker Sytox Blue before time-lapse microscopy.

## IEPDAL [H5, FRET hexapeptide IEPDAL with BODIPY-FL fluorophore at the N-terminal end and Dabcyl quencher]
0 h, Data 1
  H5+DAPI+ OVA-EL4 cancer cells: 0.47
  H5+DAPI- OVA-EL4 cancer cells: 1.17
  H5-DAPI+ OVA-EL4 cancer cells: 0.04
0 h, Data 2
  H5+DAPI+ OVA-EL4 cancer cells: 0.46
  H5+DAPI- OVA-EL4 cancer cells: 0.35
  H5-DAPI+ OVA-EL4 cancer cells: 0.011
0 h, Data 3
  H5+DAPI+ OVA-EL4 cancer cells: 0.43
  H5+DAPI- OVA-EL4 cancer cells: 0.23
  H5-DAPI+ OVA-EL4 cancer cells: 0.00
1 h, Data 1
  H5+DAPI+ OVA-EL4 cancer cells: 0.60
  H5+DAPI- OVA-EL4 cancer cells: 1.57
  H5-DAPI+ OVA-EL4 cancer cells: 0.03
1 h, Data 2
  H5+DAPI+ OVA-EL4 cancer cells: 0.80
  H5+DAPI- OVA-EL4 cancer cells: 1.83
  H5-DAPI+ OVA-EL4 cancer cells: 0.053
1 h, Data 3
  H5+DAPI+ OVA-EL4 cancer cells: 0.49
  H5+DAPI- OVA-EL4 cancer cells: 1.53
  H5-DAPI+ OVA-EL4 cancer cells: 0.026
2 h, Data 1
  H5+DAPI+ OVA-EL4 cancer cells: 0.82
  H5+DAPI- OVA-EL4 cancer cells: 3.01
  H5-DAPI+ OVA-EL4 cancer cells: 0.047
2 h, Data 2
  H5+DAPI+ OVA-EL4 cancer cells: 0.66
  H5+DAPI- OVA-EL4 cancer cells: 2.90
  H5-DAPI+ OVA-EL4 cancer cells: 0.06
2 h, Data 3
  H5+DAPI+ OVA-EL4 cancer cells: 0.58
  H5+DAPI- OVA-EL4 cancer cells: 2.81
  H5-DAPI+ OVA-EL4 cancer cells: 0.038
3 h, Data 1
  H5+DAPI+ OVA-EL4 cancer cells: 2.18
  H5+DAPI- OVA-EL4 cancer cells: 2.12
  H5-DAPI+ OVA-EL4 cancer cells: 0.05
3 h, Data 2
  H5+DAPI+ OVA-EL4 cancer cells: 1.34
  H5+DAPI- OVA-EL4 cancer cells: 2.16
  H5-DAPI+ OVA-EL4 cancer cells: 0.07
3 h, Data 3
  H5+DAPI+ OVA-EL4 cancer cells: 1.51
  H5+DAPI- OVA-EL4 cancer cells: 1.83
  H5-DAPI+ OVA-EL4 cancer cells: 0.06
4 h, Data 1
  H5+DAPI+ OVA-EL4 cancer cells: 3.60
  H5+DAPI- OVA-EL4 cancer cells: 0.63
  H5-DAPI+ OVA-EL4 cancer cells: 0.09
4 h, Data 2
  H5+DAPI+ OVA-EL4 cancer cells: 3.55
  H5+DAPI- OVA-EL4 cancer cells: 0.46
  H5-DAPI+ OVA-EL4 cancer cells: 0.05
4 h, Data 3
  H5+DAPI+ OVA-EL4 cancer cells: 2.80
  H5+DAPI- OVA-EL4 cancer cells: 0.60
  H5-DAPI+ OVA-EL4 cancer cells: 0.026
5 h, Data 1
  H5+DAPI+ OVA-EL4 cancer cells: 8.18
  H5+DAPI- OVA-EL4 cancer cells: 0.17
  H5-DAPI+ OVA-EL4 cancer cells: 0.053
5 h, Data 2
  H5+DAPI+ OVA-EL4 cancer cells: 8.22
  H5+DAPI- OVA-EL4 cancer cells: 0.12
  H5-DAPI+ OVA-EL4 cancer cells: 0.10
5 h, Data 3
  H5+DAPI+ OVA-EL4 cancer cells: 16.90
  H5+DAPI- OVA-EL4 cancer cells: 0.10
  H5-DAPI+ OVA-EL4 cancer cells: 0.14
6 h, Data 1
  H5+DAPI+ OVA-EL4 cancer cells: 11.60
  H5+DAPI- OVA-EL4 cancer cells: 0.09
  H5-DAPI+ OVA-EL4 cancer cells: 0.10
6 h, Data 2
  H5+DAPI+ OVA-EL4 cancer cells: 10.50
  H5+DAPI- OVA-EL4 cancer cells: 0.11
  H5-DAPI+ OVA-EL4 cancer cells: 0.10
6 h, Data 3
  H5+DAPI+ OVA-EL4 cancer cells: 18.10
  H5+DAPI- OVA-EL4 cancer cells: 0.076
  H5-DAPI+ OVA-EL4 cancer cells: 0.07
